From paper PMC5329948, “Caspase vinyl sulfone small molecule inhibitors prevent axonal degeneration in human neurons and reverse cognitive impairment in Caspase-6-overexpressing mice” (Molecular Neurodegeneration, 2017)

Test system: Casp6-overexpressing KI/Cre mice
Experiment: Novel object recognition task in Casp6-overexpressing KI/Cre mice
Type: in vivo, mouse
Conditions: 20 mg/kg i.p.
Method: Casp6 transgenic mouse model: All animal procedures followed the Canadian Council on Animal Care guidelines and were approved by the McGill Animal care committees. Sixteen to 20 month old C57BL/6 J mice were bred and aged in the pathogen-free Goodman Cancer Research Centre Mouse Transgenic Facility at McGill University. Mice were housed in a temperature-controlled room at 22 °C and were kept on a 12 h light/dark cycle. Food and water were available at libitum. Casp6 overexpressing mice (KI/Cre) express Casp6p20p10 under the CAG promoter (CMV immediate early enchancer/chicken β-actin promoter fusion) in the CA1 pyramidal cell layer of the hippocampus under the control of calmodulin kinase IIa (CAMKIIa)-regulated Cre expression.
Only males were used and littermates from each genotype (wild type (WT)/WT, WT/Cre, & knock-in (KI/)Cre) were tested together. The experimenter was blind to genotype and treatment groups. Mice were administered 20 mg/kg NWL-117 or physiological saline (0.9% NaCl) by intraperitoneal injections two times 48 h apart. […] Blood brain barrier permeability of NWL-117 caspase inhibitor: Briefly, 18–22 month old Casp6 mice were anesthetised with isoflurane, warmed with a heating blanket, and their physiological vitals (heart rate, body temperature, and respiration) monitored. The skin over the mouse’s neck was shaved, xylocaine applied, and an incision was made along the midline. Under a surgical microscope, the right carotid artery was gently separated from surrounding tissue. Two suture threads were placed at the proximal and distal ends of the carotid, and a small incision was made along the carotid wall. A micro-catheter (attached to a 1 ml syringe controlled by a micropump) was inserted and pushed to the entrance of the internal carotid artery. The catheter was secured in place using suture thread. […] The number of times touching each object was manually recorded, while the total distance, percent time moving, and number of entries into virtual cells were recorded using the HVS 2100 automated video tracking system (HVS Image, Buckingham, UK). […]

CCC(C)[C@H](NC(=O)[C@H](CCC(=O)O)NC(=O)[C@@H](NC(=O)OCc1ccccc1)C(C)C)C(=O)N[C@H](/C=C/S(C)(=O)=O)CC(=O)O (stereo partly drawn) [NWL-117]
locomotor or exploratory activities (two injections): no effect | NOR performance in KI/Cre mice (two injections 48 h apart): regained normal NOR performance | NOR performance in control mice (two injections 48 h apart, WT/WT and WT/Cre): performed equally to saline-treated mice
